Experimental data as given in patent US20160296646A1, “ALKYLPHOSPHOCHOLINE ANALOGS FOR MULTIPLE MYELOMA IMAGING AND THERAPY” (Wisconsin Alumni Research Foundation, priority 2015, published 2016).

Key:
[1] = test system: MM.1S multiple myeloma cell line; assay: Uptake of fluorescent analogs in MM.1S cells (optical imaging); format: cell-based; settings: for uptake: MM.1S cells, fluorescence imaging
Text: (§1) FIG. 4 includes optical images showing uptake of CLR1501 in three different multiple myeloma cell lines (top row, MM.1S; middle row, MM.1R; bottom row, RPM18226). […] 20× magnification.
(§2) FIG. 6 includes optical images showing uptake of CLR1502 in three different multiple myeloma cell lines (top row, MM1S; middle row, MM.1R; bottom row, RPM18226). […] 20× magnification.

[2] = test system: MM.1R multiple myeloma cell line; assay: Uptake of fluorescent analogs in MM.1R cells (optical imaging); format: cell-based; settings: fluorescence imaging
Text: as §1, §2

[3] = test system: RPM18226 multiple myeloma cell line; assay: Uptake of fluorescent analogs in RPM18226 cells (optical imaging); format: cell-based; settings: fluorescence imaging
Text: as §1, §2

[4] = test system: U266 multiple myeloma cell line; assay: Uptake of fluorescent analogs in U266 cells (optical imaging); format: cell-based; settings: fluorescence imaging
Text: (§3) FIG. 5 includes optical images showing uptake of CLR1501 in two additional multiple myeloma cell lines (top row, U266; bottom row, H929). […] 20× magnification.
(§4) FIG. 7 includes optical images showing uptake of CLR1502 in two additional multiple myeloma cell lines (top row, U266; bottom row, H929). […] 20× magnification.

[5] = test system: NCIH929 multiple myeloma cell line; assay: Uptake of fluorescent analogs in NCIH929 cells (optical imaging); format: cell-based; settings: fluorescence imaging
Text: as §3, §4

[6] = test system: peripheral blood mononuclear cells (PBMCs) isolated from normal human blood; assay: Uptake in normal peripheral blood mononuclear cells; format: cell-based; settings: compared to MM1.S cells
Description: FIG. 8 includes optical images showing uptake of CLR1502 in cells co-incubated with Hoechst 33452 (blue nuclear) stain. […] 20× magnification.
(§5) Uptake of CLR1501 and 1502 was assessed using peripheral blood mononuclear cells (PBMCs) isolated from normal human blood.

[7] = test system: CD14+ monocyte/macrophage cells from normal human blood; assay: Uptake in CD14+ monocyte/macrophage cells among normal PBMCs; format: cell-based
Description: as §5

[8] = test system: CD138+ multiple myeloma tumor cells; assay: Uptake in CD138+ tumor cells isolated from patient bone marrow aspirate; format: cell-based, human
Text: (§6) Bone marrow aspirate samples were taken from fifteen different patients diagnosed with multiple myeloma.
(§7) Uptake of both CLR1501 and CLR1502 was quantified by measuring fluorescence intensity for CD138^+ multiple myeloma tumor cells, CD14^+ monocyte/macrophage cells, and CD138^−/CD14^− cells isolated from bone marrow aspitrates from multiple myeloma patients.

[9] = test system: CD14+ monocyte/macrophage cells; assay: Uptake in CD14+ monocyte/macrophage cells isolated from patient bone marrow aspirate; format: cell-based, human
Text: as §6, §7

[10] = test system: CD138-/CD14- cells (other mononuclear cells); assay: Uptake in CD138-/CD14- cells isolated from patient bone marrow aspirate; format: cell-based, human
Text: as §6, §7

[11] = test system: MM.1s multiple myeloma cells; assay: Bioactivity of [131I]-CLR1404: live fraction of MM.1s cells after exposure; format: cell-based; settings: 48 hour exposure, control 96%
Description: MM.1s multiple myeloma cells were exposed to two different concentrations of [^131I]-CLR1404 (0.082 μCi and 0.91 μCi) for a 48 hour period, as well as to a control containing no [^131I]-CLR1404. Bioactivity for each group was determined by determining the percentage of cells that remained alive after the exposure period (live fraction).

[12] = CD138+ cells from bone marrow aspirates of fifteen multiple myeloma patients
[13] = CD14+ cells from patient bone marrow aspirates
[14] = CD138- cells from the same patient samples (except CD14+ cells)

## C[N+](C)(C)CCOP(=O)([O-])OCCCCCCCCCCCCCCCCCCc1ccc(C2=C3C=CC=[N+]3[B-](F)(F)n3cccc32)cc1 [CLR1501]
[1]
  uptake: strong uptake
[1]; MM.1S, MM.1R, RPM18226 cells co-incubated with lipid raft stain
  localization of uptake within cells: localized to the lipid rafts
[2]
  uptake: strong uptake
[3]
  uptake: strong uptake
[4]
  uptake: high uptake
[5]
  uptake: high uptake
[6]
  uptake: minimal to no uptake
[7]
  uptake: did exhibit uptake
[8]; [12]
  uptake: high uptake
[8]; patient A, CD138+ cells
  uptake: taken up
[9]; [13]
  uptake: did take up the analogs
[9]; patient A, CD14+ cells
  uptake: taken up
[10]; [14]
  uptake: very minimal to no uptake
[10]; patient A, CD138-/CD14- cells
  uptake: no detectable uptake
[10]; patient B, CD138-/CD14- cells co-incubated with Hoechst 33452
  uptake: minimal CLR1501 uptake

## CN1C(=CC=C2CCCC(C=CC3=[N+](C)c4ccccc4C3(C)C)=C2c2ccc(CCCCCCCCCCCCCCCCCCOP(=O)(O)OCC[N+](C)(C)C)cc2)C(C)(C)c2ccccc21 [CLR1502]
[1]
  uptake: high uptake
[2]
  uptake: high uptake
[3]
  uptake: high uptake
[4]
  uptake: high uptake
[5]
  uptake: high uptake
[6]
  uptake: minimal to no uptake
[7]
  uptake: did exhibit uptake
[8]; [12]
  uptake: high uptake
[8]; patient G, same patient
  uptake in CD138+ tumor cells relative to CD14 monocyte/macrophage cells (fluorescence intensity): threefold greater
  uptake in CD138+ tumor cells relative to CD138-/CD14- cells (fluorescence intensity): about fifteen fold greater
[9]; [13]
  uptake: did take up the analogs
[10]; [14]
  uptake: very minimal to no uptake
[10]; patient D, CD138-/CD14- cells
  uptake: minimal uptake

## C[N+](C)(C)CCOP(=O)([O-])OCCCCCCCCCCCCCCCCCCc1ccc([131I])cc1 [[^131I]-CLR1404]
[11]; 0.082 μCi
  live fraction: 71%
[11]; 0.91 μCi
  live fraction: 0%
